Key:
PDE 1 from bovine heart = test: Resistance towards phosphodiesterase: incubation with PDE 1 from bovine heart, HPLC
Protocol: For this purpose 0.1 μmol of Rp-8-bromoadenosine-3′,5′-cyclic boranophosphate (example 1) and Sp-8-bromoadenosine-3′,5′-cyclic boranophosphate […] dissolved in TRIS buffer pH 7.2 containing calcium chloride and calmodulin and incubated with PDE type I from bovine brain (Sigma-Aldrich) at 37° C. Activity of the enzyme was checked by hydrolysis of cyclic AMP. Stability was monitored by HPLC (RP-18, 11 Vol.-% propanol-2, 20 mM TEAF buffer, pH 6.8, 1 ml/min., UV 264 nm). […] This strategy of testing PDE performance was applied accordingly in degradation examples 10 and 11.
Thus, Rp-8-Br-cAMPB (example 1) and Sp-8-Br-cAMPS (Biolog, Bremen/Germany) were incubated with PDE 1 from bovine heart (Sigma-Aldrich) and monitored by HPLC as described above.
Rp-2′-O-Me-cAMPB (example 7) and Sp-2′-O-Me-cAMPS (Biolog, Bremen/Germany).

PDE IV (A4B) = biological target: T1, PDE IV (A4B) (Homo sapiens, UniProt P27815); test: Stability against PDE IV, HPLC; type: in vitro ADME; conditions: several days
T1 construct: Houslay lab, Glasgow/Scotland (obtained from another laboratory)
Protocol: Next, stability of the disclosed boranophosphates against PDE IV (A4B, Houslay lab, Glasgow/Scotland) was tested in similar experiments as described above.

bovine CNGA2 channels = biological target: T2, bovine CNGA2 channels (Bos taurus, UniProt Q03041); test: Patch-clamp of inside-out oocyte membrane patches with olfactory CNGA2 channels; type: cell-based; conditions: for current, % of its maximal value: 500 μM compound, maximal value at 500 μM cAMP, n=3; for inhibition of channel activation by cAMP: applied in the presence of cAMP; for current amplitude, % of the amplitude observed in the absence of the compound: 50 μM cAMP, 50 μM compound, n=9
T2 construct: expressed in transfected cells; host or cells: Xenopus laevis oocytes (cRNA injection; inside-out membrane patches)
T2 sequence (Q03041 1-663): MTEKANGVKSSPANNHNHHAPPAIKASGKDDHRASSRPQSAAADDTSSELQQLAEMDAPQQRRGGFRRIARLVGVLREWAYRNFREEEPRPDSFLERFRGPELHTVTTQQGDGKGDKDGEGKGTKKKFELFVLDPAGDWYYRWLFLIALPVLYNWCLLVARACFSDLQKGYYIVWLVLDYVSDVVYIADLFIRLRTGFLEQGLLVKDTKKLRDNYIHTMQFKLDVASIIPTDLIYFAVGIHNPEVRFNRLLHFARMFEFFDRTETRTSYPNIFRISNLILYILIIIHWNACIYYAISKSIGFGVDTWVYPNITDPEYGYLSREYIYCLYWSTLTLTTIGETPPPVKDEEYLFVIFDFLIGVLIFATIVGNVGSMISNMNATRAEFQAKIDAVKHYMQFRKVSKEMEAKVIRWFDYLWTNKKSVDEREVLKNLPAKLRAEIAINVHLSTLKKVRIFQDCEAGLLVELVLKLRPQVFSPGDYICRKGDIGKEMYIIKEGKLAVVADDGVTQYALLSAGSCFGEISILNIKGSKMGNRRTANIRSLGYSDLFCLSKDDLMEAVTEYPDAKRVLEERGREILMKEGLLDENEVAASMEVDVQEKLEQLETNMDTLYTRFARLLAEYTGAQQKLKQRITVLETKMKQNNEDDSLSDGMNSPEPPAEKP
Text: Next, the effects of cyclic nucleotide boranophosphates, disclosed in this invention, on olfactory cyclic nucleotide-gated ion channels in clamps of oocyte cell membrane patches were investigated.
For the experiments, oocytes were obtained and prepared as described previously (Biskup, C. et al., Nature 446, 440-443 (2007)). In brief, oocytes were obtained by partial ovariectomy from adult females of Xenopus laevis anaesthesized with 0.3% 3-aminobenzoic acid ethyl ester (Sigma). The oocytes were treated for 60-90 min with 1.2 mg/ml collagenase (Type I, Sigma) and separated manually. 40-70 nl of a solution containing cRNA encoding bovine CNGA2 channels (accession No. X55010) was injected, and the oocytes were incubated at 18° C. in Barth medium until they were used for the experiments within 3-6 days after injection. Immediately prior to the experiments the vitelline membrane of the oocytes was removed.
Currents were recorded in inside-out patches with the patch-clamp technique. The patch pipettes were pulled from quartz tubing (outer diameter 1.0 mm, inner diameter 0.7 mm) using a laser puller (P-2000, Sutter Instrument, Novato, Calif.). The pipette resistance was 0.8-2.5 MΩ. Recording was performed with an Axopatch 200B amplifier (Molecular Devices, Sunnyvale, Calif.). All experiments were performed with the same recording solution in the bath and the pipette containing (in mM) 150 KCl, 1 EGTA, 5 HEPES. pH was adjusted to 7.4 with KOH.
Measurements were controlled and data were collected with the ISO3 setup (MFK, Niedernhausen, Germany). The sampling rate was 5 kHz (filter 2 kHz). To test for possible background channel activity, each excised patch was first exposed to a solution containing no cyclic nucleotides.
FIGS. 15 A-C depict the agonistic activity of Rp-8-Br-cAMPB on CNGA2 channels. Currents were recorded in a patch containing CNGA2 channels. The patch membrane was clamped subsequently from 0 mV to −50 mV, +50 mV and back to 0 mV. […] (C) Current measured in the presence of 500 μM Rp-8-Br-cAMPB.
FIGS. 16 A-F depict the antagonistic activity of Sp-8-Br-cAMPB on CNGA2 channels. Currents were recorded in a patch containing CNGA2 channels. The patch membrane was clamped subsequently from 0 mV to −50 mV, +50 mV and back to 0 mV.

[1] = test system: PDE type I from bovine brain; test: Resistance towards phosphodiesterase: incubation with PDE type I from bovine brain, HPLC
Protocol: Activity of the enzyme was checked by hydrolysis of cyclic AMP. Stability was monitored by HPLC (RP-18, 11 Vol.-% propanol-2, 20 mM TEAF buffer, pH 6.8, 1 ml/min., UV 264 nm).

T1 sequence (P27815 whole entry): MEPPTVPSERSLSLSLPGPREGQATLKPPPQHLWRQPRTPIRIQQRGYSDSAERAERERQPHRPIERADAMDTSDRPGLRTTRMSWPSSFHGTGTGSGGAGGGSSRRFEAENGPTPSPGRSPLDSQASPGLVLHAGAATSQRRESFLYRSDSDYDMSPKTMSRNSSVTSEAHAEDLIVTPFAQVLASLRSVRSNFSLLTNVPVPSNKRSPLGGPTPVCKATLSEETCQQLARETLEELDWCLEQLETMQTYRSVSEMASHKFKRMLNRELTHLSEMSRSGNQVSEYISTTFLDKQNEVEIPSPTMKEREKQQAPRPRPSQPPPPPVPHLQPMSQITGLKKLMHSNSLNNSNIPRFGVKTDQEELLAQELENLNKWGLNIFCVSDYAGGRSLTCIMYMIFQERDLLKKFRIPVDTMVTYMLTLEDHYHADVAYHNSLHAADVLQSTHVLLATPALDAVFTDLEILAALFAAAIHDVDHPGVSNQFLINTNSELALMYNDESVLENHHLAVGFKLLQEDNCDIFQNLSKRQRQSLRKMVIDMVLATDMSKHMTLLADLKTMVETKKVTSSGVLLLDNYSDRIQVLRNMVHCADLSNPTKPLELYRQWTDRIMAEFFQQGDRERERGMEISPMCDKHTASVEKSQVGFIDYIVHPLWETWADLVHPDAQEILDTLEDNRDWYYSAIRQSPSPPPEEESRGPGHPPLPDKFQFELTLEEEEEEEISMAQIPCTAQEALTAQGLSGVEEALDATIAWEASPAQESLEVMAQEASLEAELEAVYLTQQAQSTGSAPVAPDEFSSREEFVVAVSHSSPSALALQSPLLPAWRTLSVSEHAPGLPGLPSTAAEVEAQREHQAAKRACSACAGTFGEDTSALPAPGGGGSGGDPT

8-Bromoadenosine-3′,5′-cyclic boranophosphate, Rp-isomer [Rp-8-Br-cAMPB]
degradation by PDE (PDE 1 from bovine heart): completely stable
stability against PDE IV (PDE IV (A4B)): completely stable
current, % of its maximal value (bovine CNGA2 channels; +50 mV): 14±4%
current, % of its maximal value (bovine CNGA2 channels; −50 mV, mean±SEM): 7±1%
inhibition of channel activation by cAMP (bovine CNGA2 channels): does not inhibit channel activation by cAMP

8-Bromoadenosine-3′,5′-cyclic boranophosphate, Sp-isomer [Sp-8-Br-cAMPB]
degradation by PDE [1]: no degradation was detected
current amplitude, % of the amplitude observed in the absence of the compound (bovine CNGA2 channels; +50 mV): 48±11%
current amplitude, % of the amplitude observed in the absence of the compound (bovine CNGA2 channels; −50 mV): 34±9%
inhibition of channel activation by cAMP (bovine CNGA2 channels): competitive antagonist
intrinsic activity on CNGA2 channels (bovine CNGA2 channels; up to 100 μM, absence of cAMP): did not show any intrinsic activity

Source: patent US9487553B2, “Boranophosphate analogues of cyclic nucleotides” (BIOLOG LIFE SCIENCE INSTITUTE FORSCHUNGSLABOR UND …, priority 2011, dated 2016)
